Assay results: ChEMBL document CHEMBL5696443 (Clin Cancer Res, 2016)
Active and inactive are the calls of the source. The calls are words filed in the database; no cut-off is given here.

What was measured:
[1] = biological target: Receptor tyrosine-protein kinase erbB-2 (Homo sapiens, UniProt P04626); assay: Inhibition of human ERBB2 using poly (Glu, Tyr)4:1 as substrate in presence of [gamma33P]-ATP by HotSpot assay
[2] = biological target: MAP kinase-activated protein kinase 5 (Homo sapiens) (UniProt Q8IW41); assay: Inhibition of human MAPKAPK5 at 1 uM using KKLNRTLSVA as substrate in presence of [gamma33P]-ATP by HotSpot assay relative to control
[3] = test system: EML4-ALK (Homo sapiens), Q9UM73+Q9HC35 [G1269A]; details: BaF3, time 3-5 weeks
[4] = biological target: Dual specificity protein kinase CLK4 (Homo sapiens) (UniProt Q9HAZ1); assay: Inhibition of human CLK4 at 1 uM using MBP as substrate in presence of [gamma33P]-ATP by HotSpot assay relative to control
[5] = biological target: Ribosomal protein S6 kinase alpha-4 (Homo sapiens) (UniProt O75676); assay: Inhibition of human RPS6KA4 at 1 uM using GRPRTSSFAEG as substrate in presence of [gamma33P]-ATP by HotSpot assay relative to control
[6] = biological target: Tyrosine-protein kinase Lck (Homo sapiens, UniProt P06239); assay: Inhibition of human LCK using poly (Glu, Tyr)4:1 as substrate in presence of [gamma33P]-ATP by HotSpot assay
[7] = biological target: Homeodomain-interacting protein kinase 1 (Homo sapiens) (UniProt Q86Z02); assay: Inhibition of human HIPK1 at 1 uM using MBP as substrate in presence of [gamma33P]-ATP by HotSpot assay relative to control
[8] = biological target: Mitogen-activated protein kinase kinase kinase 8 (Homo sapiens) (UniProt P41279); assay: Inhibition of human MAP3K8 at 1 uM using MEK1 as substrate in presence of [gamma33P]-ATP by HotSpot assay relative to control
Chain of Mitogen-activated protein kinase kinase kinase 8 (Homo sapiens) (P41279 whole entry): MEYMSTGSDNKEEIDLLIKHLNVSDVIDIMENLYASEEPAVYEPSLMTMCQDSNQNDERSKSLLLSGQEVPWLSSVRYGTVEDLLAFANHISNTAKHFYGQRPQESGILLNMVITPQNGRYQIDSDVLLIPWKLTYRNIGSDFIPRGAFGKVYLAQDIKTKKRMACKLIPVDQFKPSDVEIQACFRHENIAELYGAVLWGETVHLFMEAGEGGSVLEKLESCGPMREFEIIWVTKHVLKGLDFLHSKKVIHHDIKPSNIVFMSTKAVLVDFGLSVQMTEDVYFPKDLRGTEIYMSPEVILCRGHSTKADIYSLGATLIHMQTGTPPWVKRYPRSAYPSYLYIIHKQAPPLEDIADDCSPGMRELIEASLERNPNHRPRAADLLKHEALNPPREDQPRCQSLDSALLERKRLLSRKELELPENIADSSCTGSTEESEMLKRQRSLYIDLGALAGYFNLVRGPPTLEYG

[9] = test system: EML4-ALK (Homo sapiens), Q9UM73+Q9HC35 [D1203N]; details: BaF3, time 3-5 weeks
[10] = biological target: Tyrosine-protein kinase Lyn (Homo sapiens, UniProt P07948); assay: Inhibition of human LYN using poly (Glu, Tyr)4:1 as substrate in presence of [gamma33P]-ATP by HotSpot assay
[11] = biological target: Non-receptor tyrosine-protein kinase TYK2 (Homo sapiens) (UniProt P29597); assay: Inhibition of human TYK2 at 1 uM using KKSRGDYMTMQIG as substrate in presence of [gamma33P]-ATP by HotSpot assay relative to control
[12] = biological target: Serine/threonine-protein kinase WNK2 (Homo sapiens) (UniProt Q9Y3S1); assay: Inhibition of human WNK2 at 1 uM using MBP as substrate in presence of [gamma33P]-ATP by HotSpot assay relative to control
Aurora kinase B = Aurora kinase B (Homo sapiens, UniProt Q96GD4); assay: Inhibition of human AURKB using H-LRRASLG as substrate in presence of [gamma33P]-ATP by HotSpot assay
Chain of Aurora kinase B (Q96GD4 whole entry): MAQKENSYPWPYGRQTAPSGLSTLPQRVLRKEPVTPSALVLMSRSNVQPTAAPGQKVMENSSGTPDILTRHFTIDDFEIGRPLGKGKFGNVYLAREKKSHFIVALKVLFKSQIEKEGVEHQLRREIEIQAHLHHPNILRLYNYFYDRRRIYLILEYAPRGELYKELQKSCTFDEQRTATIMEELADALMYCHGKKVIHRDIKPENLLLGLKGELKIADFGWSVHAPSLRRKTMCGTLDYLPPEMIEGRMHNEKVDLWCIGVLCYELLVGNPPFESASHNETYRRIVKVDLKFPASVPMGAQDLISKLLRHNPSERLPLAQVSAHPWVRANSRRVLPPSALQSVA

[13] = biological target: Serine/threonine-protein kinase 33 (Homo sapiens) (UniProt Q9BYT3); assay: Inhibition of human STK33 at 1 uM using MBP as substrate in presence of [gamma33P]-ATP by HotSpot assay relative to control
[14] = biological target: Calcium/calmodulin-dependent protein kinase kinase 1 (Homo sapiens) (UniProt Q8N5S9); assay: Inhibition of human CAMKK1 at 1 uM using MBP as substrate in presence of [gamma33P]-ATP by HotSpot assay relative to control
Chain of Calcium/calmodulin-dependent protein kinase kinase 1 (Homo sapiens) (Q8N5S9 whole entry, looked up): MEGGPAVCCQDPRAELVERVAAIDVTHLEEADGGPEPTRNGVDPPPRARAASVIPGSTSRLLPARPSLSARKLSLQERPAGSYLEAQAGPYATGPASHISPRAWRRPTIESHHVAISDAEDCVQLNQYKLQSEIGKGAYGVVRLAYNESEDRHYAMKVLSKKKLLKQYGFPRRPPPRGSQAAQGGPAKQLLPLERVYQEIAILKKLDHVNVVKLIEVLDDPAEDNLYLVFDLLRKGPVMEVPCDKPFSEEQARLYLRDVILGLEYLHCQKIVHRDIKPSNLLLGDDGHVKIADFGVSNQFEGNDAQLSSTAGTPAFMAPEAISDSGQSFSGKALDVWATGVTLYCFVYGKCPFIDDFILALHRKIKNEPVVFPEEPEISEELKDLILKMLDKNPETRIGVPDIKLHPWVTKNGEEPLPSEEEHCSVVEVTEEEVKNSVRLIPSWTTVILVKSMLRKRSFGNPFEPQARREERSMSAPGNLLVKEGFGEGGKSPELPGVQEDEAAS

[15] = Toxicity in SCID Beige mouse xenografted with ALK positive human KARPAS-299 cells assessed as effect on body weight at 10 to 50 mg/kg; assay type: organism-based; details: in vivo, dose 10-50 mg/kg
Focal adhesion kinase 1 = Focal adhesion kinase 1 (Homo sapiens, UniProt Q05397); assay: Inhibition of human FAK using poly (Glu, Tyr)4:1 as substrate in presence of [gamma33P]-ATP by HotSpot assay
[16] = biological target: Interleukin-1 receptor-associated kinase 1 (Homo sapiens) (UniProt P51617); assay: Inhibition of human IRAK1 at 1 uM using MBP as substrate in presence of [gamma33P]-ATP by HotSpot assay relative to control
Chain of Interleukin-1 receptor-associated kinase 1 (Homo sapiens) (P51617 whole entry, looked up): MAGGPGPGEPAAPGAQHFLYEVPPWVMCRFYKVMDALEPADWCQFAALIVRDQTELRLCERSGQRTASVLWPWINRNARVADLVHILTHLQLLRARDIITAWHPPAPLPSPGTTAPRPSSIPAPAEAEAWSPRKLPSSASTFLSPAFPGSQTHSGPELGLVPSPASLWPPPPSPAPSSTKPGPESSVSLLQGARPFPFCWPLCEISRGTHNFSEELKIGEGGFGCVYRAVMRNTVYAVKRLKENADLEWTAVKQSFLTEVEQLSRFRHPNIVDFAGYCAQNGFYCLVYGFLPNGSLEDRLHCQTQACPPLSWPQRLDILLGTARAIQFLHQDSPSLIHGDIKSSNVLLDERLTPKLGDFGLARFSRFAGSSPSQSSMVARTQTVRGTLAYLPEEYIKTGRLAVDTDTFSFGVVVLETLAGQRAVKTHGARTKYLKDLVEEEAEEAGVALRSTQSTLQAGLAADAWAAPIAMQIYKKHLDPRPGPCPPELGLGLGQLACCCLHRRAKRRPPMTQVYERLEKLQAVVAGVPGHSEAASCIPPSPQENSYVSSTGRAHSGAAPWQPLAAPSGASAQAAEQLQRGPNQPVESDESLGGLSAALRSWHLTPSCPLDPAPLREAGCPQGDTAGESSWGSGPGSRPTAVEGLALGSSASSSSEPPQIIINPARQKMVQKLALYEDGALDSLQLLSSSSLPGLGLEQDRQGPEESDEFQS

[17] = test system: EML4-ALK (Homo sapiens), Q9UM73+Q9HC35 [L1152P]; details: BaF3, time 3-5 weeks
[18] = biological target: Serine/threonine-protein kinase TBK1 (Homo sapiens) (UniProt Q9UHD2); assay: Inhibition of human TBK1 at 1 uM using MBP as substrate in presence of [gamma33P]-ATP by HotSpot assay relative to control
[19] = biological target: Casein kinase I isoform gamma-3 (Homo sapiens) (UniProt Q9Y6M4); assay: Inhibition of human CSNK1G3 at 1 uM using KRRRAL[pS]VASLPGL as substrate in presence of [gamma33P]-ATP by HotSpot assay relative to control
[20] = test system: EML4-ALK (Homo sapiens), Q9UM73+Q9HC35 [F1174L]; details: BaF3, dose 500.0 nmol/L, time 3-5 weeks
[21] = biological target: Serine/threonine-protein kinase 17A (Homo sapiens) (UniProt Q9UEE5); assay: Inhibition of human STK17A at 1 uM using KKLNRTLSFAEPG as substrate in presence of [gamma33P]-ATP by HotSpot assay relative to control
[22] = biological target: Ribosomal protein S6 kinase alpha-1 (Homo sapiens, UniProt Q15418); assay: Inhibition of human RPS6KA1 using KKLNRTLSVA as substrate in presence of [gamma33P]-ATP by HotSpot assay
Chain of Ribosomal protein S6 kinase alpha-1 (Q15418 whole entry): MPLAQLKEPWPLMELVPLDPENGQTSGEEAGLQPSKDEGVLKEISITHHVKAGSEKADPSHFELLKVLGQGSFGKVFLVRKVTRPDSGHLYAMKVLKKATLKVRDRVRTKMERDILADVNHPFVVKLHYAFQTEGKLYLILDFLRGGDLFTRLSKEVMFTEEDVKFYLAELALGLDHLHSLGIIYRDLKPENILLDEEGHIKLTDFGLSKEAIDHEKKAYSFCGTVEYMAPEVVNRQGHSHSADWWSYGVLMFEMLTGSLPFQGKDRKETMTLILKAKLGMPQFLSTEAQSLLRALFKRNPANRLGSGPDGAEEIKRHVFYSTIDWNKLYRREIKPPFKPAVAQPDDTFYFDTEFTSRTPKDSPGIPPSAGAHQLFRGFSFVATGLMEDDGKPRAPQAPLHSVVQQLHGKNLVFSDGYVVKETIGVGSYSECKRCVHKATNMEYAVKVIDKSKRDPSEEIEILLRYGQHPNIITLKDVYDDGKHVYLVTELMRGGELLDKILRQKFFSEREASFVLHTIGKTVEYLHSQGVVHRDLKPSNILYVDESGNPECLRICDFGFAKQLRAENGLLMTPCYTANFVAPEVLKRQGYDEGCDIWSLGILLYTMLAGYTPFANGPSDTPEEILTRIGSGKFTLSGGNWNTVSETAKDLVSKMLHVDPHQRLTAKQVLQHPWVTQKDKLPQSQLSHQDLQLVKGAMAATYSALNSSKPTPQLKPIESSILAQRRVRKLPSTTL

[23] = biological target: Tyrosine-protein kinase ABL1 (Homo sapiens, UniProt P00519, Q252H); assay: Inhibition of human ABL1 Q252H mutant using EAIYAAPFAKKK as substrate in presence of [gamma33P]-ATP by HotSpot assay
[24] = biological target: Dual specificity protein kinase CLK3 (Homo sapiens) (UniProt P49761); assay: Inhibition of human CLK3 at 1 uM using MBP as substrate in presence of [gamma33P]-ATP by HotSpot assay relative to control
Chain of Dual specificity protein kinase CLK3 (Homo sapiens) (P49761 whole entry, looked up): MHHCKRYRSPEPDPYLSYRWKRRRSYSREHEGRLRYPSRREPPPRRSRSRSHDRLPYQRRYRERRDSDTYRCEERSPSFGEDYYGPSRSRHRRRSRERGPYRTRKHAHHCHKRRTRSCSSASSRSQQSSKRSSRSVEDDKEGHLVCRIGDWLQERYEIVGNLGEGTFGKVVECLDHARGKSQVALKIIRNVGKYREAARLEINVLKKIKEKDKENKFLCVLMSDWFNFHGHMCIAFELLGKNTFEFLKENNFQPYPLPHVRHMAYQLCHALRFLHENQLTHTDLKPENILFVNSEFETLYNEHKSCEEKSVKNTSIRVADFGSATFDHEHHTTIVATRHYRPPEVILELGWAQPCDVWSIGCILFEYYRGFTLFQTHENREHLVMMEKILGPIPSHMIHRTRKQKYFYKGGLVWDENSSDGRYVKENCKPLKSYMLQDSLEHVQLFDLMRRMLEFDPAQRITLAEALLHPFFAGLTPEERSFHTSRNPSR

[25] = biological target: SRSF protein kinase 2 (Homo sapiens) (UniProt P78362); assay: Inhibition of human SRPK2 at 1 uM using GRSRSRSRSR as substrate in presence of [gamma33P]-ATP by HotSpot assay relative to control
Chain of SRSF protein kinase 2 (Homo sapiens) (P78362 whole entry, looked up): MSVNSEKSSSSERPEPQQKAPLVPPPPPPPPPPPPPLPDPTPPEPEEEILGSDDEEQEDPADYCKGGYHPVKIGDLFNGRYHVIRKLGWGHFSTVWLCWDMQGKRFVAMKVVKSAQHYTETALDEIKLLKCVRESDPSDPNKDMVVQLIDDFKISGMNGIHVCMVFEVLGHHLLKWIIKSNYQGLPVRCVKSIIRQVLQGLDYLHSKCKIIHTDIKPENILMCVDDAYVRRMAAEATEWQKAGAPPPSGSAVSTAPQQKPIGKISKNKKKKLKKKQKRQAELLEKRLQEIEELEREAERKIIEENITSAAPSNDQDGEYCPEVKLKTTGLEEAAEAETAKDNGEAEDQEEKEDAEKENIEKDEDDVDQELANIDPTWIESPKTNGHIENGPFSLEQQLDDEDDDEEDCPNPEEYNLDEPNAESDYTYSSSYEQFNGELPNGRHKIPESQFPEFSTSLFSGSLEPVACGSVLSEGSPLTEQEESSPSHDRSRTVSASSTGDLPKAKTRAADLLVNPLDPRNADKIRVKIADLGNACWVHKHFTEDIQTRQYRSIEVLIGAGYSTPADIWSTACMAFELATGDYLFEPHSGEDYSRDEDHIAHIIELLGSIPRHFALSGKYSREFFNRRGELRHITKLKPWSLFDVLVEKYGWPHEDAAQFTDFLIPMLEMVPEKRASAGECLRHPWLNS

[26] = biological target: SRSF protein kinase 1 (Homo sapiens) (UniProt Q96SB4); assay: Inhibition of human SRPK1 at 1 uM using GRSRSRSRSR as substrate in presence of [gamma33P]-ATP by HotSpot assay relative to control
[27] = biological target: Protein-tyrosine kinase 2-beta (Homo sapiens, UniProt Q14289); assay: Inhibition of human PTK2B using poly (Glu, Tyr)4:1 as substrate in presence of [gamma33P]-ATP by HotSpot assay
Chain of Protein-tyrosine kinase 2-beta (Q14289 whole entry): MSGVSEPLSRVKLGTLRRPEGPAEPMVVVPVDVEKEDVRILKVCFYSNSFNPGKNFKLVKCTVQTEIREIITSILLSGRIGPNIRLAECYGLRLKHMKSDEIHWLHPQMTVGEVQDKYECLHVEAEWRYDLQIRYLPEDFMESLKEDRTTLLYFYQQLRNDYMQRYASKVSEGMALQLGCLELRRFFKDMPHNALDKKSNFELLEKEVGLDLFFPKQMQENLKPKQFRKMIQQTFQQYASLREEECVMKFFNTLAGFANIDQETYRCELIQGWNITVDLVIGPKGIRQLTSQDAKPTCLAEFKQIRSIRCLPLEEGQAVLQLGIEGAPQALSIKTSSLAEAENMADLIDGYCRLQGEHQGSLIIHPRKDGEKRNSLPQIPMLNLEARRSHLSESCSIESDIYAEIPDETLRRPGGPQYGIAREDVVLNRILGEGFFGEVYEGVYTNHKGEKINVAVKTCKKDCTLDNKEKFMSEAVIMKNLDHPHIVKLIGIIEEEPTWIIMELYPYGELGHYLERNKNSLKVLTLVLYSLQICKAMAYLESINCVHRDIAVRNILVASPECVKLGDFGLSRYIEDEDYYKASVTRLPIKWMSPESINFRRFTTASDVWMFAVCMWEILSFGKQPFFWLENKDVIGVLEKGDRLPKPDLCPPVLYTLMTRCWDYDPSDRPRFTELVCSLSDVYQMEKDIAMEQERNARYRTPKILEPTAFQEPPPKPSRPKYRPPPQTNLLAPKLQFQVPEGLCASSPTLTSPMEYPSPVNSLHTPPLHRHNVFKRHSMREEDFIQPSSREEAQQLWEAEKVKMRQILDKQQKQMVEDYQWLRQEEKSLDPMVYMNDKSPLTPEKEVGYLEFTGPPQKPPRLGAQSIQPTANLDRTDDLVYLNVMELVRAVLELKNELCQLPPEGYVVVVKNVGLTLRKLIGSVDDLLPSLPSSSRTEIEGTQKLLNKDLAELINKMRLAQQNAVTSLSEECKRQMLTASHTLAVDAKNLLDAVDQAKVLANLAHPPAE

COc1cc(N2CCC(N3CCN(C)CC3)CC2)ccc1Nc1ncc(Cl)c(Nc2ccccc2P(C)(C)=O)n1 [BRIGATINIB]
IC50 [1]: 42 nM | inhibition [2]: < 90% | IC90 [3]: 22 nM | inhibition [4]: < 90% | inhibition [5]: < 90% | IC50 [6]: 512 nM | inhibition [7]: < 90% | inhibition [8]: < 90% | IC90 [9]: 276 nM | IC50 [10]: 241 nM | inhibition [11]: < 90% | inhibition [12]: < 90% | IC50 (Aurora kinase B): > 1000 nM | inhibition [13]: < 90% | inhibition [14]: < 90% | Activity [15]: Non-Toxic | IC50 (Focal adhesion kinase 1): 3.9 nM | inhibition [16]: < 90% | IC90 [17]: 94 nM | inhibition [18]: < 90% | inhibition [19]: < 90% | inhibition [20]: Active | inhibition [21]: < 90% | IC50 [22]: 30 nM | IC50 [23]: 171 nM | inhibition [24]: < 90% | inhibition [25]: < 90% | inhibition [26]: < 90% | IC50 [27]: 24 nM
